Reference: patent publication US10221197B2, “Phosphatidylinositol 3-kinase inhibitors” (Gilead Sciences, Inc., priority 2014, dated 2019)

Tests used:
Type in all cases: biochemical
[1] = target: PI3Kβ (Homo sapiens (Human), UniProt P42338); test: TR-FRET enzymatic assay of PI3K isoforms (PI3Kβ); details: TR-FRET, 2×Km ATP, 2 μM PIP2, incubated for 30 minutes at 25° C.; read-out: β IC50
Description: (§1) The compounds of formula (I) were characterized for their enzymatic activity against the PI3K isoforms. Certain compounds of the present application, including certain compounds of formula (II) and (III) were also characterized for their enzymatic activity against PI3K isoforms. The activities were measured using a time-resolved fluorescence resonance energy transfer (TR-FRET) assay.

[2] = target: PI3Kδ (Homo sapiens (Human), UniProt O00329); test: TR-FRET enzymatic assay of PI3K isoforms (PI3Kδ); details: 2×Km ATP, 2 μM PIP2, incubated for 30 minutes at 25° C., read-out: δ IC50
Chain of PI3Kδ (O00329 whole entry, canonical isoform): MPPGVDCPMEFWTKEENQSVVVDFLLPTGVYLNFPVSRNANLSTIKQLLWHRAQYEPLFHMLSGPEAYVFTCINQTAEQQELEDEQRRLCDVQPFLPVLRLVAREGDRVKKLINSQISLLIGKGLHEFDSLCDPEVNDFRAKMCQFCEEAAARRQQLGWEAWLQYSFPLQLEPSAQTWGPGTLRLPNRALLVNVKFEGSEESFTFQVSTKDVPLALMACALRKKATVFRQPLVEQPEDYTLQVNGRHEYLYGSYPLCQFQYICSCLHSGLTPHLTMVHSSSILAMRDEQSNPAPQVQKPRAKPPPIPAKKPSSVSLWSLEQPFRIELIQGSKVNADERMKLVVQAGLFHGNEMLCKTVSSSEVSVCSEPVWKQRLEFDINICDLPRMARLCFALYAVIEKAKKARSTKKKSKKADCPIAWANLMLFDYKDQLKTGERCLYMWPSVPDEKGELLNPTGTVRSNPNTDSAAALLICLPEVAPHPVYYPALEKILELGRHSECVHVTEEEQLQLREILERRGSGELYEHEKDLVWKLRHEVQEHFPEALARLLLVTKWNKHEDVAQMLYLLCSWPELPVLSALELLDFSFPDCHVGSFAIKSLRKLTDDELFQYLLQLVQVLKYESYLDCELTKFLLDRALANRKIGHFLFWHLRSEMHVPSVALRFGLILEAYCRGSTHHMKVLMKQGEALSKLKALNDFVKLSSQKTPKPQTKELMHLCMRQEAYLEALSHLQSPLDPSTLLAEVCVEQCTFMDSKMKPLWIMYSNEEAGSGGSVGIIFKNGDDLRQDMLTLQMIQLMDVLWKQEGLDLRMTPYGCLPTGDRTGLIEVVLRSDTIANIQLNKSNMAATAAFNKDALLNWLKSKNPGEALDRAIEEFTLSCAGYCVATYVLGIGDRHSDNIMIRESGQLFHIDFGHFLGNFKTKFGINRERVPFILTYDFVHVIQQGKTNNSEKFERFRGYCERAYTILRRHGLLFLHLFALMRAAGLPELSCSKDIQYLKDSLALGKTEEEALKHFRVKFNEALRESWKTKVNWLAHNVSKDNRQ
Chain of PI3Kδ (P27986 whole entry partner, canonical isoform): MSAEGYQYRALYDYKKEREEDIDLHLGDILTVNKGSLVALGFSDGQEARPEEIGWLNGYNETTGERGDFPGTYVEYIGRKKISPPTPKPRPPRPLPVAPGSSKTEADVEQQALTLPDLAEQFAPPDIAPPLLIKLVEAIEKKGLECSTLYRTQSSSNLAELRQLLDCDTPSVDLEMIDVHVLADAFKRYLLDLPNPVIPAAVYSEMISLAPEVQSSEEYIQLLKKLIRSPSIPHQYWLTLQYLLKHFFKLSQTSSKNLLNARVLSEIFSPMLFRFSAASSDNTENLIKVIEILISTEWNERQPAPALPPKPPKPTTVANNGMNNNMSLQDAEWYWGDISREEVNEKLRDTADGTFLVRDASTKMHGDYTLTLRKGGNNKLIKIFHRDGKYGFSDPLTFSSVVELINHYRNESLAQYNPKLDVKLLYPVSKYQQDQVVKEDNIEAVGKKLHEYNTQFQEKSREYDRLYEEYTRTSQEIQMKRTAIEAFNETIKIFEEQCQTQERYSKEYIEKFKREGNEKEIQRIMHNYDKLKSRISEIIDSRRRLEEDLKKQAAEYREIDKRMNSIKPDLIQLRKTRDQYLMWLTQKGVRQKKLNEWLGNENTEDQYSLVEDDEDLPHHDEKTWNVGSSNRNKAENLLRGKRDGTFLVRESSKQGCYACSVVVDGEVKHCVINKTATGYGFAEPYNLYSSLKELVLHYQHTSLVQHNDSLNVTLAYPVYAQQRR
Description: as §1

[3] = target: PI3Kγ (Homo sapiens (Human), UniProt P48736); test: TR-FRET enzymatic assay of PI3K isoforms (PI3Kγ); details: TR-FRET, 2×Km ATP, 2 μM PIP2, PI3Kγ at 2 nM, incubated for 30 minutes at 25° C.; read-out: γ IC50
Chain of PI3Kγ (P48736 whole entry, canonical isoform): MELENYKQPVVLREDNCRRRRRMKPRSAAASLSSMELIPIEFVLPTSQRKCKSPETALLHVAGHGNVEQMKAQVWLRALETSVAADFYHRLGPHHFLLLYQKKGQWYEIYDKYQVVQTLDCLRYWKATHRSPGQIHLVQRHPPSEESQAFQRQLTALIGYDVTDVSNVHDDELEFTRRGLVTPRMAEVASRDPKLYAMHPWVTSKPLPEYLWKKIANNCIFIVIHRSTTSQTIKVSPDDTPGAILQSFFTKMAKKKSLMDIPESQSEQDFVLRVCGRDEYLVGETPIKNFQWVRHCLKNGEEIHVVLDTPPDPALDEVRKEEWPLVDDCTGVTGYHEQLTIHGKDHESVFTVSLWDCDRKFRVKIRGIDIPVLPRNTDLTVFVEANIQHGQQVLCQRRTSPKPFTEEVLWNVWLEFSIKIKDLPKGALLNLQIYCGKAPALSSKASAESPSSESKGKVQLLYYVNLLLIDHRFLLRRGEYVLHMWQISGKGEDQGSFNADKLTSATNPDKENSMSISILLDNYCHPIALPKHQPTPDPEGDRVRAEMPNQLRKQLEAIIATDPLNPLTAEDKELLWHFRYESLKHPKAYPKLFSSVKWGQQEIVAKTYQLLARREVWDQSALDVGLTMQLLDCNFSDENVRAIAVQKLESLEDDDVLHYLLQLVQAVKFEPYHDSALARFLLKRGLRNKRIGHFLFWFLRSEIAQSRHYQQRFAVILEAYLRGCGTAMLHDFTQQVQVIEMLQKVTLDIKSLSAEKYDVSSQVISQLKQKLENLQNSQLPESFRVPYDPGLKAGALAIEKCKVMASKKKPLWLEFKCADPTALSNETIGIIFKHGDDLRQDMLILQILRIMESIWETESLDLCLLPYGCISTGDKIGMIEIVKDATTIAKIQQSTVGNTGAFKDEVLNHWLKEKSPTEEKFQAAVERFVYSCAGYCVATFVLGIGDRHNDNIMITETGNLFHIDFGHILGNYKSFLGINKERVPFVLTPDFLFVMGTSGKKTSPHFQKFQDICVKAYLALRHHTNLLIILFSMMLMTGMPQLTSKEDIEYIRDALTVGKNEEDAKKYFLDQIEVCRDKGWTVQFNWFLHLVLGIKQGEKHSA
Chain of PI3Kγ (Q8WYR1 whole entry partner, canonical isoform): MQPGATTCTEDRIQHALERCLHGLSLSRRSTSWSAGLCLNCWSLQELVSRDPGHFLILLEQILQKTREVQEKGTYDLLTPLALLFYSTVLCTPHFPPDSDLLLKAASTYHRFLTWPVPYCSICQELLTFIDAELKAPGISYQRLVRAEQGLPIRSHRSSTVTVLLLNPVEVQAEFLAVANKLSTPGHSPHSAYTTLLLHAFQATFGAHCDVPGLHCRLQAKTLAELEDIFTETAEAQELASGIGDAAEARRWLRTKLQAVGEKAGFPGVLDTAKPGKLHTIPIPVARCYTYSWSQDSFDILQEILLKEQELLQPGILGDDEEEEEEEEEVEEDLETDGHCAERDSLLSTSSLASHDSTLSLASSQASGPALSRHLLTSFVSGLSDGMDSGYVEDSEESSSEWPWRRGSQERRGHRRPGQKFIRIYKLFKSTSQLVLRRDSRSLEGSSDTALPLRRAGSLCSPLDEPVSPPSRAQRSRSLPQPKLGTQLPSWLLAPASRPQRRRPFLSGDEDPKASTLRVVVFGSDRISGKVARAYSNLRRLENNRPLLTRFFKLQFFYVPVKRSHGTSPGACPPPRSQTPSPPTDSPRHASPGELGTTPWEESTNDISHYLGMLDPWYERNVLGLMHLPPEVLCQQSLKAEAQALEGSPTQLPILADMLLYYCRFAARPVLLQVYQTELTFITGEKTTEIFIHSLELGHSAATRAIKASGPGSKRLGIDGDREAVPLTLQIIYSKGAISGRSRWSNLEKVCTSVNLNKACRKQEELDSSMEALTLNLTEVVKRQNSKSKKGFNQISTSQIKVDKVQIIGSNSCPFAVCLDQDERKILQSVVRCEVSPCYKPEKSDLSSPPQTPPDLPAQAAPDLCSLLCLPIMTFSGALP
Description: as §1

Chain of PI3Kβ (P42338 whole entry, canonical isoform): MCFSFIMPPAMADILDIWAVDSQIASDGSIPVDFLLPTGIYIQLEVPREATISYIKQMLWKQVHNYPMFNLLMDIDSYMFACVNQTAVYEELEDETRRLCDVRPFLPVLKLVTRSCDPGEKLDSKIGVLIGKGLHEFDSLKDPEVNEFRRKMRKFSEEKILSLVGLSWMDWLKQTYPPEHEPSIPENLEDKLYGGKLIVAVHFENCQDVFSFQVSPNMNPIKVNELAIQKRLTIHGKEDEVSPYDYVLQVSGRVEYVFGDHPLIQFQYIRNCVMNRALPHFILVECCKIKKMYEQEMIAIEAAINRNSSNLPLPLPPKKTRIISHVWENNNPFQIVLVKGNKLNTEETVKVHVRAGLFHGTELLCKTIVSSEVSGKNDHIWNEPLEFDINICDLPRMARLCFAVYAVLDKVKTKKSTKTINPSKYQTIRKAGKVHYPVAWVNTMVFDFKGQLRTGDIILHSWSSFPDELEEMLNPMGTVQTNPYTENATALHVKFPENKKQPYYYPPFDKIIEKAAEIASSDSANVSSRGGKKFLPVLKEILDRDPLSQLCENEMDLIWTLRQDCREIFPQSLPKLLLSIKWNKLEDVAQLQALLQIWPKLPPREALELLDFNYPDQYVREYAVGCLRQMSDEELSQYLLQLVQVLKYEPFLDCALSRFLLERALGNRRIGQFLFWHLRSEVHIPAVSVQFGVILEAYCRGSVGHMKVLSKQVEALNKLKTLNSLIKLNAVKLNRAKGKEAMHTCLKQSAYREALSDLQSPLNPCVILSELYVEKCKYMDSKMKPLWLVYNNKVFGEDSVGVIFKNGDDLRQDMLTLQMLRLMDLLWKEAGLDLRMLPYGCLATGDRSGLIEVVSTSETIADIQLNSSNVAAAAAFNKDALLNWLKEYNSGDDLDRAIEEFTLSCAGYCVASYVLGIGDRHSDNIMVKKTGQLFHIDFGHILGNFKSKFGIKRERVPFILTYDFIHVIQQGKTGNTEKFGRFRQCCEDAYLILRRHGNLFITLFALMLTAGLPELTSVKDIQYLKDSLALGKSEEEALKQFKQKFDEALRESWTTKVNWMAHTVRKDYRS
Chain of PI3Kβ (P27986 whole entry partner, canonical isoform): as the sequence (P27986 whole entry partner, canonical isoform) above

Row | SMILES | IC50 [1] [nM] | IC50 [2] [nM] | IC50 [3] [nM]
1 | C[C@H](Nc1nc(N)nc(N)c1C#N)c1nc2cccc(Cl)c2c(=O)n1-c1cccc(C(N)=O)c1 [Compound 2, (S)-3-(5-chloro-2-(1-((2,6-diamino-5-cyanopyrimidin-4-yl)amino)ethyl)-4-oxoquinazolin-3(4H)-yl)benzamide] | 6 | 0.5 | 60
2 | CC[C@H](Nc1nc(N)nc(N)c1C#N)c1nc2cccc(Cl)c2c(=O)n1-c1cccc(C(N)=O)c1 [Compound 8, (S)-3-(5-chloro-2-(1-((2,6-diamino-5-cyanopyrimidin-4-yl)amino)propyl)-4-oxoquinazolin-3(4H)-yl)benzamide] | 2 | 0.4 | 200
3 | N#Cc1c(N)nc(N)nc1N[C@H](c1nc2cccc(Cl)c2c(=O)n1-c1cccc(C(N)=O)c1)C1CC1 [Compound 9, (S)-3-(5-chloro-2-(cyclopropyl((2,6-diamino-5-cyanopyrimidin-4-yl)amino)methyl)-4-oxoquinazolin-3(4H)-yl)benzamide] | 2 | 0.6 | 220
4 | NC(=O)c1cccc(-n2c([C@@H](Nc3nc(N)nc(N)c3Cl)C3CC3)nc3cccc(Cl)c3c2=O)c1 [Compound 10, (S)-3-(5-chloro-2-(cyclopropyl((2,6-diamino-5-chloropyrimidin-4-yl)amino)methyl)-4-oxoquinazolin-3(4H)-yl)benzamide] | 7 | 1 | 2700
5 | N#Cc1c(N)nc(N)nc1N[C@H](c1nc2c(Cl)ccc(Cl)c2c(=O)n1-c1cccc(C(N)=O)c1)C1CC1 [Compound 12, (S)-3-(5,8-dichloro-2-(cyclopropyl((2,6-diamnino-5-cyanopyrimidin-4-yl)amino)methyl)-4-oxoquinazolin-3(4H)-yl)benzamide] | 6 | 0.3 | 230
6 | Cc1nc(N)nc(N[C@H](c2nc3c(F)ccc(Cl)c3c(=O)n2-c2cccc(C(N)=O)c2)C2CC2)c1C#N [Compound 14, (S)-3-(2-(((2-amino-5-cyano-6-methylpyrimidin-4-yl)amino)(cyclopropyl)methyl)-5-chloro-8-fluoro-4-oxoquinazolin-3(4H)-yl)benzamide] | 10 | 1 | 360
7 | N#Cc1c(N)nc(N)nc1N[C@H](c1nc2c(F)ccc(Cl)c2c(=O)n1-c1cccc(C(N)=O)c1)C1CC1 [Compound 15, (S)-3-(5-chloro-2-(cyclopropyl((2,6-diamino-5-cyanopyrimidin-4-yl)amino)methyl)-8-fluoro-4-oxoquinazolin-3(4H)-yl)benzamide] | 10 | 1 | 330
8 | NC(=O)c1cccc(-n2c([C@@H](Nc3nc(N)nc(N)c3Cl)C3CC3)nc3c(F)ccc(Cl)c3c2=O)c1 [Compound 16, (S)-3-(5-chloro-2-(cyclopropyl((2,6-diamino-5-chloropyrimidin-4-yl)amino)methyl)-8-fluoro-4-oxoquinazolin-3(4H)-yl)benzamide] | 17 | 2 | 3200
9 | CCC[C@H](Nc1nc(N)nc(N)c1C#N)c1nc2cccc(Cl)c2c(=O)n1-c1cccc(C(N)=O)c1 [Compound 22, (S)-3-(5-chloro-2-(1-((2,6-diamino-5-cyanopyrimidin-4-yl)amino)butyl)-4-oxoquinazolin-3(4H)-yl)benzamide] | 7 | 0.7 | 300
10 | C[C@H](Nc1nc(N)nc(C(F)F)c1C#N)c1nc2c(F)ccc(Cl)c2c(=O)n1-c1cccc(C(N)=O)c1 [Compound 24, (S)-3-(2-(1-((2-amino-5-cyano-6-(difluoromethyl)pyrimidin-4-yl)amino)ethyl)-5-chloro-8-fluoro-4-oxoquinazolin-3(4H)-yl)benzamide] | 25 | 1 | 660
11 | C[C@H](Nc1nc(N)nc(C(F)F)c1C#N)c1nc2cccc(Cl)c2c(=O)n1-c1cccc(C(N)=O)c1 [Compound 25, (S)-3-(2-(1-((2-amino-5-cyano-6-(difluoromethyl)pyrimidin-4-yl)amino)ethyl)-5-chloro-4-oxoquinazolin-3(4H)-yl)benzamide] | 24 | 1 | 700
12 | C[C@H](Nc1nc(N)nc(C(F)F)c1C#N)c1nc2c(Cl)cc(F)cc2c(=O)n1-c1cccc(C(N)=O)c1 [Compound 26, (S)-3-(2-(1-((2-amino-5-cyano-6-(difluoromethyl)pyrimidin-4-yl)amino)ethyl)-8-chloro-6-fluoro-4-oxoquinazolin-3(4H)-yl)benzamide] | 313 | 12 | 7200
13 | NC(=O)c1cccc(-n2c([C@@H](Nc3nc(N)nc(N)c3Cl)C3CC3)nc3c(Cl)cc(F)cc3c2=O)c1 [Compound 28, (S)-3-(8-chloro-2-(cyclopropyl((2,6-diamino-5-chloropyrimidin-4-yl)amino)methyl)-6-fluoro-4-oxoquinazolin-3(4H)-yl)benzamide] | 267 | 46 | > 10000
14 | C[C@H](Nc1nc(N)nc(N)c1Cl)c1nc2c(Cl)cc(F)cc2c(=O)n1-c1cccc(C(N)=O)c1 [Compound 30, (S)-3-(8-chloro-2-(1-((2,6-diamino-5-chloropyrimidin-4-yl)amino)ethyl)-6-fluoro-4-oxoquinazolin-3(4H)-yl)benzamide] | 252 | 22 | > 10000
15 | C[C@H](Nc1nc(N)nc(N)c1C#N)c1nc2c(C#N)cc(F)cc2c(=O)n1-c1cccc(C(N)=O)c1 [Compound 31, (S)-3-(8-cyano-2-(1-((2,6-diamino-5-cyanopyrimidin-4-yl)amino)ethyl)-6-fluoro-4-oxoquinazolin-3(4H)-yl)benzamide] | 21 | 2 | 1100
16 | N#Cc1c(N)nc(N)nc1N[C@H](c1nc2c(C#N)cc(F)cc2c(=O)n1-c1cccc(C(N)=O)c1)C1CC1 [Compound 32, (S)-3-(8-cyano-2-(cyclopropyl((2,6-diamino-5-cyanopyrimidin-4-yl)amino)methyl)-6-fluoro-4-oxoquinazolin-3(4H)-yl)benzamide] | 25 | 4 | 1800
17 | CC[C@H](Nc1nc(N)nc(N)c1C#N)c1nc2cccc(C(F)F)c2c(=O)n1-c1cccc(C(N)=O)c1 [Compound 33, (S)-3-(2-(1-((2,6-diamino-5-cyanopyrimidin-4-yl)amino)propyl)-5-(difluoromethyl)-4-oxoquinazolin-3(4H)-yl)benzamide] | 4 | 0.8 | 380

Next, values leading:

Row | IC50 [1] [nM] | IC50 [2] [nM] | IC50 [3] [nM] | SMILES
18 | 12 | 0.8 | 460 | C[C@H](Nc1nc(N)nc(N)c1C#N)c1nc2c(Cl)ccc(Cl)c2c(=O)n1-c1cccc(C(N)=O)c1 [Compound 3, (S)-3-(5,8-dichloro-2-(1-((2,6-diamino-5-cyanopyrimidin-4-yl)amino)ethyl)-4-oxoquinazolin-3(4H)-yl)benzamide]
19 | 29 | 1 | 4400 | C[C@H](Nc1nc(N)nc(N)c1Cl)c1nc2c(Cl)ccc(Cl)c2c(=O)n1-c1cccc(C(N)=O)c1 [Compound 4, (S)-3-(5,8-dichloro-2-(1-((2,6-diamino-5-chloropyrimidin-4-yl)amino)ethyl)-4-oxoquinazolin-3(4H)-yl)benzamide]
20 | 7 | 1 | 2700 | CC[C@H](Nc1nc(N)nc(N)c1Cl)c1nc2cccc(Cl)c2c(=O)n1-c1cccc(C(N)=O)c1 [Compound 7, (S)-3-(5-chloro-2-(1-((2,6-diamino-5-chloropyrimidin-4-yl)amino)propyl)-4-oxoquinazolin-3(4H)-yl)benzamide]
21 | 37 | 3 | 8500 | NC(=O)c1cccc(-n2c([C@@H](Nc3nc(N)nc(N)c3Cl)C3CC3)nc3c(Cl)ccc(Cl)c3c2=O)c1 [Compound 11, (S)-3-(5,8-dichloro-2-(cyclopropyl((2,6-diamino-5-chloropyrimidin-4-yl)amino)methyl)-4-oxoquinazolin-3(4H)-yl)benzamide]
22 | 8 | 0.5 | 1200 | CC[C@H](Nc1nc(N)nc(N)c1C#N)c1nc2c(Cl)ccc(Cl)c2c(=O)n1-c1cccc(C(N)=O)c1 [Compound 18, (S)-3-(5,8-dichloro-2-(1-((2,6-diamino-5-cyanopyrimidin-4-yl)amino)propyl)-4-oxoquinazolin-3(4H)-yl)benzamide]
23 | 28 | 3 | > 10000 | CC[C@H](Nc1nc(N)nc(N)c1Cl)c1nc2c(Cl)ccc(Cl)c2c(=O)n1-c1cccc(C(N)=O)c1 [Compound 19, (S)-3-(5,8-dichloro-2-(1-((2,6-diamino-5-chloropyrimidin-4-yl)amino)propyl)-4-oxoquinazolin-3(4H)-yl)benzamide]
24 | 196 | 19 | > 10000 | CCC[C@H](Nc1nc(N)nc(N)c1Cl)c1nc2c(Cl)ccc(Cl)c2c(=O)n1-c1cccc(C(N)=O)c1 [Compound 21, (S)-3-(5,8-dichloro-2-(1-((2,6-diamino-5-chloropyrimidin-4-yl)amino)butyl)-4-oxoquinazolin-3(4H)-yl)benzamide]
25 | 12 | 2 | 3900 | CCC[C@H](Nc1nc(N)nc(N)c1Cl)c1nc2cccc(Cl)c2c(=O)n1-c1cccc(C(N)=O)c1 [Compound 23, (S)-3-(5-chloro-2-(1-((2,6-diamino-5-chloropyrimidin-4-yl)amino)butyl)-4-oxoquinazolin-3(4H)-yl)benzamide]
